Data taken from patent publication US20040014697A1, “Melanoma antigenic peptides” (priority 1998, published 2004).

System: Hurley RI 000 tumor infiltrating lymphocytes (cytotoxic T cell specific for the G9-209 epitope encoded by the human melanoma associate protein gp100)
Assay: sensitization of tumor infiltrating lymphocytes and interferon-γ release
Type: cell-based
Details: Hurley RI 000 TIL, G9-209 (gp100) specific
Text: This invention provides novel, synthetic peptide sequences which are useful as components of melanoma vaccines and to expand immune effector cells that are specific for melanoma. […] These assay methods are known in the art and disclosed in Zugel, U. et al. (1998) J Immunol. 161:1705-1709) and Salgaller, M. L. et al. (1995) Infra. The peptide sequences of the present invention differ from the natural epitope (ITDQVPFSV) (Seq. ID No. 5) in two ways: (1) they contain mutation sin the putative HLA-A2 binding domain (amino acid residues 1, 2, and 9) conferring tighter binding to the MHC, and (2) they contain mutations in the putative T cell receptor-binding domain (amino acid residues 3-8) resulting in an apparent increased avidity for the T cell receptor. They also are novel over the synthetic peptides disclosed by Salgaller, et al. (1995) Cancer Res. 55:4972-4979.

Row | Sequence | sensitize tumor infiltrating lymphocytes and interferon-γ release
1 | FLFSWYAXV | shown to sensitize
2 | FLDQVAFXV | shown to sensitize
